For series [1], the system named is A. baumannii 1403. Put plainly: MIC assay, strain 1403. Conditions: Acinetobacter baumannii, strain 1403. The class given is cell-based, Acinetobacter baumannii. As for the experimental part: (§1) MIC and MBC assays were performed in this study as documented by us previously.^17,23,24,25 The A. baumannii strains used are detailed in Table 7.
For series [2], the system named is A. baumannii 1646. Put plainly: MIC assay, strain 1646. The class given is cell-based, Acinetobacter baumannii. Conditions: Acinetobacter baumannii. As for the experimental part:
as §1

For series [3], the system named is A. baumannii 1649. Description: MIC assay, strain 1649. To be noted: Acinetobacter baumannii, strain 1649. The class given is cell-based, Acinetobacter baumannii. As for the experimental part: as §1
Series [4] relates to A. baumannii 1650. Description: MIC assay, strain 1650. To be noted: Acinetobacter baumannii, strain 1650. The class given is cell-based, Acinetobacter baumannii. The method, then:
as §1

In series [5] the test system is A. baumannii 1651. Put plainly: MIC assay, strain 1651. The class given is cell-based, Acinetobacter baumannii. To be noted: Acinetobacter baumannii, strain 1651. The method, then: as §1
Series [6] relates to A. baumannii 1652. Put plainly: MIC assay, strain 1652. The class given is cell-based, Acinetobacter baumannii. Conditions: Acinetobacter baumannii, strain 1652. The method, then:
as §1

The next series relates to A. baumannii. Put plainly: MIC assay, A. baumannii isolates (strain not given). The class given is cell-based, Acinetobacter baumannii. Conditions: for MIC: Acinetobacter baumannii, strain not given, read-out: MIC. The method, then: as §1
Series [7] has as its system A. baumannii 1403. Description: minimal bactericidal concentration (MBC) assay, strain 1403. The class given is cell-based. To be noted: Acinetobacter baumannii, Table 8, read-out: MBC90 1403.
Source text: (§2) Lead quinazolines 4, 5, 26, 29, 27, and 30 were selected to be further evaluated for antimicrobial effects. The first assay utilized was a minimal bactericidal concentration (MBC) assay, to assess whether leads compounds were bacteriostatic or bactericidal. The six lead agents were screened to identify their MBC90 towards each of the six A. baumannii isolates used in the SAR studies (Table 8), however for simplicity only the representative data for isolate 1646 is detailed below (Table 6). […] Further to this, we were able to obtain complete eradication of bacterial growth for these two compounds at 1 μM for 24 and 5 μM for 25.
as §1

Series [8] relates to A. baumannii 1646. Put plainly: minimal bactericidal concentration (MBC) assay, strain 1646. The class given is cell-based, Acinetobacter baumannii.
Source text: as §2, §1

Series [9] relates to A. baumannii 1649. Description: minimal bactericidal concentration (MBC) assay, strain 1649. The class given is cell-based. Conditions: Acinetobacter baumannii, Table 8, read-out: MBC90 1649.
Source text: as §2, §1

The test system of series [10] is A. baumannii 1650. Put plainly: minimal bactericidal concentration (MBC) assay, strain 1650. The class given is cell-based. Conditions: Acinetobacter baumannii, Table 8, read-out: MBC90 1650.
Source text: as §2, §1

For series [11], the system named is A. baumannii 1651. Put plainly: minimal bactericidal concentration (MBC) assay, strain 1651. To be noted: Acinetobacter baumannii, Table 8, read-out: MBC90 1651. The class given is cell-based.
Source text: as §2, §1

Series [12] has as its system A. baumannii 1652. Put plainly: minimal bactericidal concentration (MBC) assay, strain 1652. To be noted: Acinetobacter baumannii, Table 8, read-out: MBC90 1652. The class given is cell-based.
Source text: as §2, §1

In series [13] the test system is A. baumannii 1403 biofilm. Put plainly: biofilm eradication determination assay, strain 1403. The class given is cell-based, Acinetobacter baumannii. Conditions: 90% biofilm eradication, Table 8. As for the experimental part:
(§3) These assays were performed as described by us previously,^26,24 as follows. Each of the A. baumannii strains were grown overnight in Mueller Hinton Broth (MHB). The next day these were used to seed fresh MHB to an OD600 of 0.5, with 150 μL then added to the wells of a 96 well plate and grown for 24 hours at 37° C. After 24 hours, the planktonic bacteria were carefully removed and fresh MHB was added with increasing concentrations of lead quinazolines. After incubation at 37° C. for 24 hours, planktonic cells were removed and biofilms were washed three times with phosphate buffered saline (PBS). Biofilms were then resuspended in PBS and plated for cell viability on tryptic soy agar. Biofilm recovery was assessed compared to no drug controls, and determined as percent eradication. This was used to determine MBEC90 values (Minimal Biofilm Eradication Concentration), where the viability of cells within the biofilm was reduced by 90%.

Series [14] has as its system A. baumannii 1646 biofilm. Description: biofilm eradication determination assay, strain 1646. The class given is cell-based, Acinetobacter baumannii. As for the experimental part: as §3
In series [15] the test system is A. baumannii 1649 biofilm. Put plainly: biofilm eradication determination assay, strain 1649. The class given is cell-based, Acinetobacter baumannii. Conditions: 90% biofilm eradication, Table 8. As for the experimental part: as §3
In series [16] the test system is A. baumannii 1650 biofilm. Description: biofilm eradication determination assay, strain 1650. The class given is cell-based, Acinetobacter baumannii. To be noted: 90% biofilm eradication, Table 8. As for the experimental part: as §3
The subject of series [17] is A. baumannii 1651 biofilm. Put plainly: biofilm eradication determination assay, strain 1651. The class given is cell-based, Acinetobacter baumannii. Conditions: 90% biofilm eradication, Table 8. As for the experimental part:
as §3

For series [18], the system named is A. baumannii 1652 biofilm. Description: biofilm eradication determination assay, strain 1652. The class given is cell-based, Acinetobacter baumannii. To be noted: 90% biofilm eradication, Table 8. As for the experimental part: as §3
Another series relates to human HepG2 cells. The class given is cell-based. The method, then:
Cytotoxicity assays were performed using human HepG2 cells (human liver epithelial with hepatocellular carcinoma), as described by us previously.^17,24 Cells were cultured in Dulbecco's modified eagle medium (DMEM), supplemented with 10% fetal bovine serum and 1% penicillin-streptomycin for 3 days at 37° C. and 5% CO2. Cells were then diluted to 1×10^5 ml^−1 using fresh DMEM and added to 96 well tissue culture plates at a volume of 100 μL. Plates were incubated for 24 hours at 37° C. and 5% CO2, allowing the cells to adhere to the plastic. […] Plates were then incubated for 48 hours at 37° C. and 5% CO2. After 48 hours the DMEM was removed and 100 μL of new media was added containing MTT (3-(4, 5-dimethylthiazol-2-yl)-2, 5-diphenyltetrazolium bromide), followed by incubation for four hours at 37° C. and 5% CO2. […] Lead compounds were solvated in 100% DMSO for these studies, which served as the negative control. LD50 values were determined for each compound by comparison to vehicle only controls.

The mark [19] stands for this setting: Tables 1, 3, 4, 5 and footnotes, read-out: 1403 MIC.
[20] abbreviates: strain 1646, Tables 1, 3, 4, 5 and footnotes, read-out: 1646 MIC.
Setting [21] is: Tables 1, 3, 4, 5 and footnotes, read-out: 1649 MIC.
The mark [22] stands for this setting: Tables 1, 3, 4, 5 and footnotes, read-out: 1650 MIC.
The mark [23] stands for this setting: Tables 1, 3, 4, 5 and footnotes, read-out: 1651 MIC.
Where [24] appears, read: Tables 1, 3, 4, 5 and footnotes, read-out: 1652 MIC.

Converted amounts (≈) assume the structure as drawn. Where two headings read alike, the source gives them in different places. Some results are limits rather than exact numbers.

`CNc1nc(NCCc2ccccc2)nc2ccccc12` [Compound 16, N^4-Methyl-N^2-phenethylquinazoline-2,4-diamine]: the MIC in the series on A. baumannii 1403 [1] (setting [19]) was over 50 µM; in the series on A. baumannii 1646 [2] (setting [20]) it was 12 µM (≈ 3.34 µg/mL); in the series on A. baumannii 1649 [3] (setting [21]), over 50 µM; with A. baumannii 1650 [4] (setting [22]), over 50 µM; with A. baumannii 1651 [5] (setting [23]), over 50 µM; in the series with A. baumannii 1652 [6] (setting [24]) it was over 50 µM. In addition, in the series with A. baumannii (MIC comparison), the “fold more active than the benzyl analogue 8” value is 4 fold.
As for `CCC/C=C/c1ccc2nc(NCc3ccccc3)nc(NC)c2c1` [Compound 26, (E)-N^2-Benzyl-N^4-methyl-6-(pent-1-en-1-yl)quinazoline-2,4-diamine], the MIC came to 10 µM (≈ 3.32 µg/mL) in the series on A. baumannii 1403 [1] (setting [19]); 10 µM (≈ 3.32 µg/mL) in the series with A. baumannii 1403 [1] (lead quinazolines, Table 8, read-out: MIC 1403); 1 µM (≈ 0.332 µg/mL) in the series with A. baumannii 1646 [2] (Table 6, representative data for isolate 1646, read-out: MIC); 2 µM (≈ 0.665 µg/mL) in the series on A. baumannii 1646 [2] (setting [20]); 1 µM (≈ 0.332 µg/mL) in the series on A. baumannii 1646 [2] (strain 1646, lead quinazolines, Table 8, read-out: MIC 1646); 10 µM (≈ 3.32 µg/mL) with A. baumannii 1649 [3] (setting [21]). Also, the MIC came to 10 µM (≈ 3.32 µg/mL) in the series with A. baumannii 1649 [3] (lead quinazolines, Table 8, read-out: MIC 1649); 25 µM (≈ 8.31 µg/mL) in the series with A. baumannii 1650 [4] (setting [22]); 25 µM (≈ 8.31 µg/mL) in the series on A. baumannii 1650 [4] (lead quinazolines, Table 8, read-out: MIC 1650); 2 µM (≈ 0.665 µg/mL) in the series on A. baumannii 1651 [5] (setting [23]); 2 µM (≈ 0.665 µg/mL) in the series on A. baumannii 1651 [5] (lead quinazolines, Table 8, read-out: MIC 1651); 30 µM (≈ 9.97 µg/mL) with A. baumannii 1652 [6] (setting [24]). In addition, the minimum inhibitory concentration (MIC) in the series on A. baumannii 1652 [6] (lead quinazolines, Table 8, read-out: MIC 1652) is 30 µM (≈ 9.97 µg/mL). Besides, the MBC is 40 µM (≈ 13.3 µg/mL) with A. baumannii 1403 [7]; 1.8 µM (≈ 0.598 µg/mL) in the series on A. baumannii 1646 [8] (Acinetobacter baumannii, 1646, strain 1646, Table 8 and text, read-out: MBC90 1646); 1.8 µM (≈ 0.598 µg/mL) with A. baumannii 1646 [8] (Acinetobacter baumannii, Table 6, representative data for isolate 1646, read-out: MBC90); 10 µM (≈ 3.32 µg/mL) in the series on A. baumannii 1649 [9]; 16 µM (≈ 5.32 µg/mL) with A. baumannii 1650 [10]; 5.7 µM (≈ 1.89 µg/mL) with A. baumannii 1651 [11]. Also, the MBC in the series on A. baumannii 1652 [12] worked out at 23 µM (≈ 7.65 µg/mL). Moreover, the “complete bacterial eradication concentration as multiple of MIC” value in the series with A. baumannii 1646 [8] (isolate 1646) was found to be 5 ×. Also, the “concentration giving complete eradication of bacterial growth” value in the series on A. baumannii 1646 [8] (isolate 1646) stood at 5 µM. The “MBEC90 1403” value in series [13] was found to be 24 µM. The MBEC90 in [14] (Table 6, representative data for isolate 1646) turned out to be 8.9 µM. Besides, the “reduction in biofilm viability” value in series [14] (at 50 μM, strain 1646) is given as 1.4 log. Moreover, the “MBEC90 1646” value in series [14] (strain 1646, 90% biofilm eradication, Table 8 and text) is 8.9 µM. Also, in series [15], the “MBEC90 1649” value stood at 63 µM. Further, the “MBEC90 1650” value in series [16] amounted to 50 µM. Moreover, in series [17], the “MBEC90 1651” value worked out at 24 µM. Further, the “MBEC90 1652” value in series [18] worked out at 97 µM. In addition, the values for the HepG2 cell viability in the series with human HepG2 cells (at 12 μM) and in the series on human HepG2 cells (at 25 μM (highest concentration tested)) were 49% and 41%, respectively. Besides, the “LD50(HepG2)” value in the series with human HepG2 cells (human, 48 h) was 16 µM.
For the compound `CNc1nc(NCCc2ccccc2)nc2ccc(C)cc12` [Compound 20, N^4,6-Dimethyl-N^2-phenethylquinazoline-2,4-diamine], the MIC in the series on A. baumannii 1403 [1] (setting [19]) was over 50 µM; in the series on A. baumannii 1646 [2] (setting [20]), 2 µM (≈ 0.585 µg/mL); in the series with A. baumannii 1649 [3] (setting [21]), over 50 µM; in the series with A. baumannii 1650 [4] (setting [22]), over 50 µM; in the series with A. baumannii 1651 [5] (setting [23]), 10 µM (≈ 2.92 µg/mL); with A. baumannii 1652 [6] (setting [24]), over 50 µM. In addition, in the series on A. baumannii, the MIC lay within 2 to 4 µM (≈ 0.585 to 1.17 µg/mL).
Turning to `CNc1nc(NCCc2ccccc2)nc2ccc(OC)cc12` [Compound 18, 6-Methoxy-N^4-methyl-N^2-phenethylquinazoline-2,4-diamine], the MIC in the series on A. baumannii 1403 [1] (setting [19]) was over 50 µM; in the series on A. baumannii 1646 [2] (setting [20]) it was 4 µM (≈ 1.23 µg/mL); in the series with A. baumannii 1649 [3] (setting [21]), over 50 µM; with A. baumannii 1650 [4] (setting [22]), over 50 µM; in the series with A. baumannii 1651 [5] (setting [23]), over 50 µM; in the series on A. baumannii 1652 [6] (setting [24]) it was over 50 µM. For the same compound, the MIC with A. baumannii lay within 2 to 4 µM (≈ 0.617 to 1.23 µg/mL).

For orientation: MIC means the smallest concentration in the dilution series that meets the test's criterion for growth inhibition.

Source of the values: patent publication US10323007B1, “N2N N4-disubstituted quinazoline-2,4-diamines and uses thereof” (University of South Florida, priority 2016, dated 2019).
